From patent publication US8309685B2 (Celgene Avilomics Research, Inc., priority 2007, dated 2012)
pIC50: −log10 of the molar value. Like-named read-outs stand apart in the source and are kept apart here.

Key:
[1] = target: T1, wild type HCV NS3/4A 1b protease enzyme (Hepatitis C virus genotype 1b, UniProt P26663); assay: HCV Protease FRET Assay (IC50_APP), wild type; type: biochemical
T1 construct: 10× stocks of NS3/4A protease enzyme from Bioenza (Mountain View, Calif.); purchased Bioenza (Mountain View, Calif.)
Experimental: (§1) HCV Protease FRET Assay for WT and Mutated NS3/4A 1b Enzymes (IC50—APP).
(§2) The following protocol was used to generate “apparent” IC50 (IC50—APP) values as depicted in Table 6, below. […] 5 μL of each enzyme were added to Corning (#3575) 384-well, black, microtiter plates (Corning, N.Y.) after spotting a 0.5 μL volume of 50% DMSO and serially diluted compounds prepared in 50% DMSO. Protease reactions were immediately started after enzyme addition with the addition of 45 μL of the FRET substrate and monitored for 60-90 minutes at λex485/λem520 in a Synergy^4 plate reader from BioTek (Winooski, Vt.). At the conclusion of each assay, progress curves from each well were examined for linear reaction kinetics and fit statistics (R^2, 95% confidence intervals, absolute sum of squares).
(§3) The compound numbers correspond to the compound numbers in Table 3. […] ;

[2] = system: HCV RNA replicon in cell line ET (luc-ubi-neo/ET), human Huh7 hepatoma; assay: Method A: HCV RNA replicon antiviral assay (luciferase, ET cell line); type: cell-based, Hepatitis C virus; conditions: Hepatitis C virus, Huh-7, assay described in Example 22; for pIC50: read-out: Replicon (IC50)
Experimental: The compounds were assayed to evaluate the antiviral activity and cytotoxicity of compounds in vitro using HCV RNA replicons. This assay used the cell line ET (luc-ubi-neo/ET), which is a human Huh7 hepatoma cell line that contains an HCV RNA replicon with a stable luciferase (Luc) reporter and three cell culture-adaptive mutations. […]
The ET cell line was grown in Dulbecco's modified essential media (DMEM), 10% fetal bovine serum (FBS), 1% penicillin-streptomycin (pen-strep), 1% glutamine, 250 μg/ml G418 in a 5% CO2 incubator at 37° C. All cell culture reagents were obtained from Mediatech (Manassas, Va.). Cells were trypsinized (1% trypsin:EDTA) and plated out at 5×10^3 cells/well in white 96-well assay plates (Costar) dedicated to cell number (cytotoxicity) or antiviral activity assessments. Drugs were added at six 3-fold concentrations each and the assay was run in DMEM, 5% FBS, 1% pen-strep, 1% glutamine. Human interferon alpha-2b (PBL Biolabs, New Brunswick, N.J.) was included in each run as a positive control compound. Cells were processed 72 hr post drug addition when the cells are still subconfluent. Antiviral activity was measured by analyzing replicon-derived luciferase activity using the Steady-Glo Luciferase Assay System (Promega, Madison, Wis.) according to manufacturer's instruction. The number of cells in each well was determined by CytoTox-1 reagent (Promega). Compound profile was derived by calculating applicable EC50 (effective concentration inhibiting virus replication by 50%), EC90 (effective concentration inhibiting virus replication by 90%), IC50 (concentration decreasing cell viability by 50%) and SI50 (selective index: […]) values.

[3] = target: T2, D168A mutant of the HCV NS3/4A 1b protease enzyme (Hepatitis C virus genotype 1b, UniProt P26663, D1194A); assay: HCV Protease FRET Assay (IC50_APP), D168A mutant; type: biochemical; conditions: apparent IC50, D168A mutant; read-out: IC50_APP, HCV D168A
T2 construct: 10× stocks of NS3/4A protease enzyme from Bioenza (Mountain View, Calif.); purchased Bioenza (Mountain View, Calif.)
Experimental: as §1, §2, §3

[4] = target: T3, A156T mutant of the HCV NS3/4A 1b protease enzyme (Hepatitis C virus genotype 1b, UniProt P26663, A1182T); assay: HCV Protease FRET Assay (IC50_APP), A156T mutant; type: biochemical; conditions: apparent IC50, A156T mutant; read-out: IC50_APP, HCV A156T
T3 construct: 10× stocks of NS3/4A protease enzyme from Bioenza (Mountain View, Calif.); purchased Bioenza (Mountain View, Calif.)
Experimental: as §1, §2, §3

[5] = read-out: IC50_APP, WT, apparent IC50, wild type NS3/4A 1b

SMILES	pIC50 [1, 5]	IC90 [2]	pIC50 [2]	pIC50 [3]	pIC50 [4]	pIC50 [1]
C#CCOC(=O)N[C@@H](CN(C)C(=O)CCCl)C(=O)N1C[C@H](Oc2cc(-c3ccccc3)nc3cc(OC)ccc23)C[C@H]1C(=O)N[C@]1(C(=O)NS(=O)(=O)C2CC2)C[C@H]1C=C [Compound I-71]	> 8.00	100 to 1000 nM	6.00 to 7.00	6.00 to 7.00	6.00 to 7.00	
C=CC(=O)NC[C@H](NC(=O)OC1CCCC1)C(=O)N1C[C@H](Oc2cc(-c3ccccc3)nc3cc(OC)ccc23)C[C@H]1C(=O)N[C@]1(C(=O)NS(=O)(=O)C2CC2)C[C@H]1C=C [Compound I-55, Cyclopentyl-(S)-3-acrylamido-1-((2S,4R)-2-((1R,2S)-1-(cyclopropylsulfonylcarbamoyl)-2-vinylcyclopropylcarbamoyl)-4-(7-methoxy-2-phenylquinolin-4-yloxy)pyrrolidin-1-yl)-1-oxopropan-2-ylcarbamate]	> 8.00	100 to 1000 nM	> 8.00	6.00 to 7.00	6.00 to 7.00	
C=CC(=O)N[C@H](C(=O)N1C[C@H](Oc2cc(-c3ccccc3)nc3cc(OC)ccc23)C[C@H]1C(=O)N[C@]1(C(=O)NS(=O)(=O)c2ccccc2)C[C@H]1C=C)C(C)C [Compound I-60, (2S,4R)-1-((S)-2-acrylamido-3-methylbutanoyl)-N-((1R,2S)-1-(phenylylsulfonylcarbamoyl)-2-vinylcyclopropyl)-4-(7-methoxy-2-phenylquinolin-4-yloxy)pyrrolidine-2-carboxamide]	7.00 to 8.00	100 to 1000 nM	7.00 to 8.00	5.00 to 6.00	6.00 to 7.00	
C=C[C@@H]1C[C@]1(NC(=O)[C@@H]1C[C@@H](Oc2cc(-c3ccccc3)nc3cc(OC)ccc23)CN1C(=O)[C@H](CCC(=O)C=C(C)C)NC(=O)OC(C)(C)C)C(=O)NS(=O)(=O)C1CC1 [Compound I-68, tert-butyl-(S)-1-((2S,4R)-2-((1R,2S)-1-(cyclopropylsulfonylcarbamoyl)-2-vinylcyclopropylcarbamoyl)-4-(7-methoxy-2-phenylquinolin-4-yloxy)pyrrolidin-1-yl)-7-methyl-1,5-dioxooct-6-en-2-ylcarbamate]	> 8.00	10 to 100 nM	> 8.00	6.00 to 7.00	6.00 to 7.00	
C=CC(=O)N(C)CC[C@H](NC(=O)OC1CCCC1)C(=O)N1C[C@H](Oc2cc(-c3ccccc3)nc3cc(OC)ccc23)C[C@H]1C(=O)N[C@]1(C(=O)NS(=O)(=O)C2CC2)C[C@H]1C=C [Compound I-85, Cyclopentyl-(S)-1-((2S,4R)-2-((1R,2S)-1-(cyclopropylsulfonylcarbamoyl)-2-vinylcyclopropylcarbamoyl)-4-(7-methoxy-2-phenylquinolin-4-yloxy)pyrrolidin-1-yl)-4-(N-methylacrylamido)-1-oxobutan-2-ylcarbamate]	> 8.00	10 to 100 nM	7.00 to 8.00	7.00 to 8.00	7.00 to 8.00	
C=C[C@@H]1C[C@]1(NC(=O)[C@@H]1C[C@@H](Oc2cc(-c3ccccc3)nc3cc(OC)ccc23)CN1C(=O)[C@H](CCC(=O)N[C@@H]1C(=O)O[C@@H]1C)NC(=O)OC(C)(C)C)C(=O)NS(=O)(=O)C1CC1 [Compound I-67, t-butyl-(2S)-1-((2S,4R)-2-((1R,2S)-1-(cyclopropylsulfonylcarbamoyl)-2-vinylcyclopropylcarbamoyl)-4-(7-methoxy-2-phenylquinolin-4-yloxy)pyrrolidin-1-yl)-5-((2R,3S)-2-methyl-4-oxooxetan-3-ylamino)-1,5-dioxopentan-2-ylcarbamate]	> 8.00	100 to 1000 nM	7.00 to 8.00	> 8.00	> 8.00	
C=CC(=O)O[C@H](C)[C@H](NC(=O)OC(C)(C)C)C(=O)N1C[C@H](Oc2cc(-c3ccccc3)nc3cc(OC)ccc23)C[C@H]1C(=O)N[C@]1(C(=O)NS(=O)(=O)C2CC2)C[C@H]1C=C [Compound I-64, t-butyl-(2S,3R)-3-acryloxy-1-((2S,4R)-2-((1R,2S)-1-(cyclopropylsulfonylcarbamoyl)-2-vinylcyclopropylcarbamoyl)-4-(7-methoxy-2-phenylquinolin-4-yloxy)pyrrolidin-1-yl)-1-oxobutan-2-ylcarbamate]	> 8.00	100 to 1000 nM	6.00 to 7.00	7.00 to 8.00	7.00 to 8.00	
C=C[C@@H]1C[C@]1(NC(=O)[C@@H]1C[C@@H](Oc2nccc3ccc(-c4cccs4)cc23)CN1C(=O)[C@H](CCC(=O)C=C(C)C)NC(=O)OC(C)(C)C)C(=O)NS(=O)(=O)C1CC1 [Compound I-87, tert-butyl-(S)-1-((2S,4R)-2-((1R,2S)-1-(cyclopropylsulfonylcarbamoyl)-2-vinylcyclopropylcarbamoyl)-4-(7-(thiophen-2-yl)isoquinolin-1-yloxy)pyrrolidin-1-yl)-7-methyl-1,5-dioxooct-6-en-2-ylcarbamate]		10 to 100 nM	> 8.00	6.00 to 7.00	7.00 to 8.00	> 8.00
C=C[C@@H]1C[C@]1(NC(=O)[C@@H]1C[C@@H](Oc2cc(-c3ccccc3)nc3cc(OC)ccc23)CN1C(=O)[C@H](CCC(=O)N[C@H]1COC1=O)NC(=O)OC(C)(C)C)C(=O)NS(=O)(=O)C1CC1 [Compound I-69, t-butyl-(2S)-1-((2S,4R)-2-((1R,2S)-1-(cyclopropylsulfonylcarbamoyl)-2-vinylcyclopropylcarbamoyl)-4-(7-methoxy-2-phenylquinolin-4-yloxy)pyrrolidin-1-yl)-5-((3S)-2-oxooxetan-3-ylamino)-1,5-dioxopentan-2-ylcarbamate]	> 8.00			6.00 to 7.00	6.00 to 7.00	
C=C[C@@H]1C[C@]1(NC(=O)[C@@H]1C[C@@H](Oc2cc(-c3ccccc3)nc3cc(OC)ccc23)CN1C(=O)CNC(=O)c1ccc([N+](=O)[O-])cc1F)C(=O)NS(=O)(=O)c1ccccc1 [Compound I-63, (2S,4R)-1-(2-fluoro-4-nitrobenzamidoacetyl)-N-((1R,2S)-1-(phenylsulfonylcarbamoyl)-2-vinylcyclopropyl)-4-(7-methoxy-2-phenylquinolin-4-yloxy)pyrrolidine-2-carboxamide]	6.00 to 7.00			5.00 to 6.00	5.00 to 6.00	
C=CC(=O)N[C@@H](C(=O)N1C[C@H](Oc2cc(-c3ccccc3)nc3cc(OC)ccc23)C[C@H]1C(=O)N[C@]1(C(=O)NS(=O)(=O)C2CC2)C[C@H]1C=C)C(C)(C)C [Compound I-65, (2S,4R)-1-((R)-2-acrylamido-3,3-dimethylbutanoyl)-N-((1R,2S)-1-(cyclopropylsulfonylcarbamoyl)-2-vinylcyclopropyl)-4-(7-methoxy-2-phenylquinolin-4-yloxy)pyrrolidine-2-carboxamide]	6.00 to 7.00			5.00 to 6.00	5.00 to 6.00	
C=C[C@@H]1C[C@]1(NC(=O)[C@@H]1C[C@@H](Oc2cc(-c3ccccc3)nc3cc(OC)ccc23)CN1C(=O)CNC(=O)/C=C/C)C(=O)NS(=O)(=O)C1CC1 [Compound I-57, (2S,4R)-1-(2-(E)-but-2-enamidoacetyl)-N-((1R,2S)-1-(cyclopropylsulfonylcarbamoyl)-2-vinylcyclopropyl)-4-(7-methoxy-2-phenylquinolin-4-yloxy)pyrrolidine-2-carboxamide]	6.00 to 7.00			5.00 to 6.00		
C=C[C@@H]1C[C@]1(NC(=O)[C@@H]1C[C@@H](Oc2cc(-c3ccccc3)nc3cc(OC)ccc23)CN1C(=O)C(CN(C)C(=O)C#CC)NC(=O)OC(C)(C)C)C(=O)NS(=O)(=O)c1ccccc1 (stereo in doubt) [Compound I-51, tert-butyl-(S)-1-((2S,4R)-4-(7-methoxy-2-phenylquinolin-4-yloxy)-2-((1R,2S)-1-(phenylsulfonylcarbamoyl)-2-vinylcyclopropylcarbamoyl)pyrrolidin-1-yl)-3-(N-methylbut-2-ynamido)-1-oxopropan-2-ylcarbamate]	7.00 to 8.00			5.00 to 6.00		
